Structures are written as SMILES.

This assay concerns p-IKKa levels in L363 (NIK translocated multiple myeloma) cells. The assay can be described thus: Assay 2: Effect of compounds on p-IKKa levels in L363 (NIK translocated multiple myeloma) cells. It is filed as cell-based. The conditions noted are these: Homo sapiens, L-363, 6 h, read-out: Assay 2 IC50 (nM), p-IKKa (Ser 176/180) in BAFF stimulated L363 cells with MG132, 6 h; average if tested more than once. In a few lines:
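L363 cells incubated overnight ± 250 ng/ml BAFF, then 6 h at 37 °C with compound (0.3% DMSO) ± 10 μM MG132. Lysates assayed for p-IKKa (Ser176/180) by AlphaLISA SureFire. IC50 from sigmoidal fit of % inhibition normalized to BAFF/MG132-stimulated and unstimulated controls.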
Consider `Cc1cc(Nc2nccc(-c3cccc(-n4cc([C@@]5(O)C(=O)N(C)CC5(F)F)nn4)n3)n2)ccn1` [Example 117, (R)-4,4-Difluoro-3-hydroxy-1-methyl-3-(1-(6-(2-((2-methylpyridin-4-yl)amino)pyrimidin-4-yl)pyridin-2-yl)-1H-1,2,3-triazol-4-yl)pyrrolidin-2-one], for which the IC50 is under 50 nM. Next, `CN1CC[C@@](O)(c2cn(-c3cccc(-c4ccnc(Nc5cnn6ccccc56)n4)n3)nn2)C1=O` [Example 121, (R)-3-Hydroxy-1-methyl-3-(1-(6-(2-(pyrazolo[1,5-a]pyridin-3-ylamino)pyrimidin-4-yl)pyridin-2-yl)-1H-1,2,3-triazol-4-yl)pyrrolidin-2-one]: under 50 nM; `COc1nn(CC(F)F)cc1Nc1nccc(-c2cccc(-n3cc([C@]4(O)CCN(C)C4=O)nn3)n2)n1` [Example 122, (R)-3-(1-(6-(2-((1-(2,2-Difluoroethyl)-3-methoxy-1H-pyrazol-4-yl)amino)pyrimidin-4-yl)pyridin-2-yl)-1H-1,2,3-triazol-4-yl)-3-hydroxy-1-methylpyrrolidin-2-one]: under 50 nM; `CN1CC[C@@](O)(c2cc(-c3cccc(-c4ccnc(NCCn5ccc(N)n5)n4)n3)no2)C1=O` [Example 123, (R)-3-(3-(6-(2-((2-(3-Amino-1H-pyrazol-1-yl)ethyl)amino)pyrimidin-4-yl)pyridin-2-yl)isoxazol-5-yl)-3-hydroxy-1-methylpyrrolidin-2-one]: over 500 nM. For `CN1CC[C@@](O)(c2cc(-c3cccc(-c4ccnc(Nc5cnn(C6CC6)c5)n4)n3)no2)C1=O` [Example 124, (R)-3-(3-(6-(2-((1-Cyclopropyl-1H-pyrazol-4-yl)amino)pyrimidin-4-yl)pyridin-2-yl)isoxazol-5-yl)-3-hydroxy-1-methylpyrrolidin-2-one], the IC50 was under 50 nM.

For `CN1CC[C@@](O)(c2cc(-c3cccc(-c4ccnc(Nc5cnn(CCN)c5)n4)n3)no2)C1=O` [Example 125, (R)-3-(3-(6-(2-((1-(2-Aminoethyl)-1H-pyrazol-4-yl)amino)pyrimidin-4-yl)pyridin-2-yl)isoxazol-5-yl)-3-hydroxy-1-methylpyrrolidin-2-one], the IC50 is 50 to 500 nM. Turning to `CN(C)CCn1ccc(Nc2nccc(-c3cccc(-c4cc([C@]5(O)CCN(C)C5=O)on4)n3)n2)n1` [Example 126, (R)-3-(3-(6-(2-((1-(2-(Dimethylamino)ethyl)-1H-pyrazol-3-yl)amino)pyrimidin-4-yl)pyridin-2-yl)isoxazol-5-yl)-3-hydroxy-1-methylpyrrolidin-2-one], the IC50 is under 50 nM. To `CN1CC[C@@](O)(c2cc(-c3cccc(-c4ccnc(Nc5ccnn6ccnc56)n4)n3)no2)C1=O` [Example 127, (R)-3-Hydroxy-3-(3-(6-(2-(imidazo[1,2-b]pyridazin-8-ylamino)pyrimidin-4-yl)pyridin-2-yl)isoxazol-5-yl)-1-methylpyrrolidin-2-one] belongs 50 to 500 nM; to `Cc1nccc(Nc2nccc(-c3cccc(-c4cc([C@]5(O)CCN(C)C5=O)on4)n3)n2)c1C` [Example 128, (R)-3-(3-(6-(2-((2,3-Dimethylpyridin-4-yl)amino)pyrimidin-4-yl)pyridin-2-yl)isoxazol-5-yl)-3-hydroxy-1-methylpyrrolidin-2-one], under 50 nM. Take `Cc1cc(Nc2nccc(-c3cccc(-c4cc([C@]5(O)CCN(C)C5=O)on4)n3)n2)n(CCO)n1` [Example 129, (R)-3-Hydroxy-3-(3-(6-(2-((1-(2-hydroxyethyl)-3-methyl-1H-pyrazol-5-yl)amino)pyrimidin-4-yl)pyridin-2-yl)isoxazol-5-yl)-1-methylpyrrolidin-2-one]: the IC50 lay within 50 to 500 nM. Next, `CN(C)CCOc1ccc(Nc2nccc(-c3cccc(-c4cc([C@]5(O)CCN(C)C5=O)on4)n3)n2)nn1` [Example 130, (R)-3-(3-(6-(2-((6-(2-(Dimethylamino)ethoxy)pyridazin-3-yl)amino)pyrimidin-4-yl)pyridin-2-yl)isoxazol-5-yl)-3-hydroxy-1-methylpyrrolidin-2-one]: 50 to 500 nM; `Cc1ncnn1-c1ccc(Nc2nccc(-c3cccc(-c4cc([C@]5(O)CCN(C)C5=O)on4)n3)n2)nc1` [Example 131, (R)-3-Hydroxy-1-methyl-3-(3-(6-(2-((5-(5-methyl-1H-1,2,4-triazol-1-yl)pyridin-2-yl)amino)pyrimidin-4-yl)pyridin-2-yl)isoxazol-5-yl)pyrrolidin-2-one]: 50 to 500 nM; `CN1C(=O)[C@](O)(c2cc(-c3cccc(-c4ccnc(Nc5cnn6c5CCC6)n4)n3)no2)[C@H]2C[C@H]21` [Example 133, (1R,4R,5S)-4-(3-(6-(2-((5,6-Dihydro-4H-pyrrolo[1,2-b]pyrazol-3-yl)amino)pyrimidin-4-yl)pyridin-2-yl)isoxazol-5-yl)-4-hydroxy-2-methyl-2-azabicyclo[3.1.0]hexan-3-one]: under 50 nM.

Regarding `CN1CC[C@@](O)(c2cc(-c3cccc(-c4ccnc(Nc5cnn6c5CCC6)n4)n3)on2)C1=O` [Example 134, (R)-3-(5-(6-(2-((5,6-Dihydro-4H-pyrrolo[1,2-b]pyrazol-3-yl)amino)pyrimidin-4-yl)pyridin-2-yl)isoxazol-3-yl)-3-hydroxy-1-methylpyrrolidin-2-one], the IC50 was under 50 nM. Next, `COCn1ncc(Nc2nccc(-c3cccc(-c4cc([C@]5(O)CCN(C)C5=O)no4)n3)n2)n1` [Example 135, (R)-3-Hydroxy-3-(5-(6-(2-((2-(methoxymethyl)-2H-1,2,3-triazol-4-yl)amino)pyrimidin-4-yl)pyridin-2-yl)isoxazol-3-yl)-1-methylpyrrolidin-2-one]: under 50 nM. For the compound `COc1cc(-c2ccnc(Nc3cnn(C)c3)n2)nc(-n2cc([C@]3(O)CCN(C)C3=O)nn2)c1` [Example 136, (R)-3-Hydroxy-3-(1-(4-methoxy-6-(2-((1-methyl-1H-pyrazol-4-yl)amino)pyrimidin-4-yl)pyridin-2-yl)-1H-1,2,3-triazol-4-yl)-1-methylpyrrolidin-2-one], the IC50 is under 50 nM. To `CN1CC[C@@](O)(c2cn(-c3cc(C(F)F)cc(-c4ccnc(Nc5cnn(C)c5)n4)n3)nn2)C1=O` [Example 137, (R)-3-(1-(4-(Difluoromethyl)-6-(2-((1-methyl-1H-pyrazol-4-yl)amino)pyrimidin-4-yl)pyridin-2-yl)-1H-1,2,3-triazol-4-yl)-3-hydroxy-1-methylpyrrolidin-2-one] belongs under 50 nM; to `COCc1cc(-c2ccnc(Nc3cnn(C)c3)n2)nc(-n2cc([C@]3(O)CCN(C)C3=O)nn2)c1` [Example 138, (R)-3-Hydroxy-3-(1-(4-(methoxymethyl)-6-(2-((1-methyl-1H-pyrazol-4-yl)amino)pyrimidin-4-yl)pyridin-2-yl)-1H-1,2,3-triazol-4-yl)-1-methylpyrrolidin-2-one], 50 to 500 nM. Next, `Cc1nn(CC(F)F)cc1Nc1nccc(-c2cccc(-n3cc([C@]4(O)CCN(C)C4=O)nn3)n2)n1` [Example 144, (R)-3-(1-(6-(2-((1-(2,2-Difluoroethyl)-3-methyl-1H-pyrazol-4-yl)amino)pyrimidin-4-yl)pyridin-2-yl)-1H-1,2,3-triazol-4-yl)-3-hydroxy-1-methylpyrrolidin-2-one]: under 50 nM.
